Converted amounts (≈) assume the structure as drawn.
Experiment: Water solubility
Format: physicochemical
Details: bei 25 °C

Row | SMILES | Wasserlöslichkeit
1 | CC(Oc1c(I)c(C(=O)NC(CO)CO)c(I)c(C(=O)NC(CO)CO)c1I)C(=O)N(C)CC(O)C(O)CO (centres unmarked) [Beispiel 22, (5-(1(N-Methyl-N-2,3,4-trihydroxybutyl)aminocarbonyl)ethoxy)-2,4,6-trijodisophthalsäure-bis(1,3-dihydroxyisopropylamid)] | > 100 % (g/v)

Same assay, conditions: result in words, no temperature stated

Row | Wasserlöslichkeit | SMILES
2 | löslich in Wasser | O=C(NC(CO)CO)c1c(I)c(OCC(O)CO)c(I)c(C(=O)NC(CO)CO)c1I (centres unmarked) [Beispiel 8, 5-(2,3-Dihydroxypropyl)oxy-2,4,6-trijodisophthalsäure-bis(1,3-dihydroxy-isopropylamid)]
3 | in Wasser leicht löslich | O=C(NC(CO)CO)c1c(I)c(OC(CO)CO)c(I)c(C(=O)NC(CO)CO)c1I [Beispiel 9, 5-(1,3-Dihydroxyisopropyl)oxy-2,4,6-trijodisophthalsäure-bis(1,3-di-hydroxyisopropylamid)]
4 | spielend leicht wasserlöslich | O=C(NC(CO)CO)c1c(I)c(OCC(CO)(CO)CO)c(I)c(C(=O)NC(CO)CO)c1I [Beispiel 10, 5-(2,2-Bis-(hydroxymethyl)-3-hydroxypropyl)oxy-2,4,6-trijodisophthal-säure-bis(1,3-dihydroxyisopropylamid)]
5 | gering | C[C@@H](Oc1c(I)c(C(=O)NC(CO)CO)c(I)c(C(=O)NC(CO)CO)c1I)C(=O)NC(CO)CO [Beispiel 14, R(-)-5-(1(1,3-Dihydroxyisopropylaminocarbonyl)ethoxy)-2,4,6-trijodiso-phthalsäure-bis(1,3-dihydroxyisopropylamid)]

Same assay, conditions: water, bei 20 °C; read-out: Wasserlöslichkeit

Row | SMILES | solubility [mg/mL]
6 | O=C(COc1c(Br)c(C(=O)NC(CO)CO)c(Br)c(C(=O)NC(CO)CO)c1Br)NC(CO)CO [Beispiel 12, 5-(1,3-Dihydroxyisopropylaminocarbonyl)methoxy-2,4,6-tribromisophthal-säure-bis(1,3-dihydroxyisopropylamid)] | > 1000
7 | CC(Oc1c(I)c(C(=O)NC(CO)CO)c(I)c(C(=O)NC(CO)CO)c1I)C(=O)N(C)CC(O)CO (centres unmarked) [Beispiel 20 R,S] | > 1000
8 | C[C@@H](Oc1c(I)c(C(=O)NC(CO)CO)c(I)c(C(=O)NC(CO)CO)c1I)C(=O)N(C)CC(O)CO (some centres unmarked) [Beispiel 20 R] | > 1000
9 | CN(C[C@H](O)[C@@H](O)[C@H](O)[C@H](O)CO)C(=O)COc1c(I)c(C(=O)NC(CO)CO)c(I)c(C(=O)NC(CO)CO)c1I [Beispiel 27, 5-(N-Methyl-N-2,3,4,5,6-pentahydroxyhexyl)aminocarbonylmethoxy-2,4,6-trijodisophthalsäure-bis(1,3-dihydroxyisopropylamid)] | 1000 (≈ 1060 mM)
10 | CN(C[C@H](O)[C@@H](O)[C@H](O)[C@H](O)CO)C(=O)COc1c(Br)c(C(=O)NC(CO)CO)c(Br)c(C(=O)NC(CO)CO)c1Br [Beispiel 29, 5(N-Methyl-N-2,3,4,5,6-pentahydroxyhexyl)aminocarbonylmethoxy-2,4,6-tribromisophthalsäure-bis(1,3-dihydroxyisopropylamid)] | > 1000
11 | O=C(COc1c(I)c(C(=O)NCC(O)CO)c(I)c(C(=O)NCC(O)CO)c1I)NCC(O)CO (centres unmarked) [Beispiel 32, 5-(2,3-Dihydroxypropylaminocarbonylmethoxy)-2,4,6-trijodisophthalsäure-bis(2,3-dihydroxypropylamid)] | 10 (≈ 11.9 mM)
12 | CN(C[C@H](O)[C@@H](O)[C@H](O)[C@H](O)CO)C(=O)COc1c(I)c(C(=O)NCC(O)CO)c(I)c(C(=O)NCC(O)CO)c1I (some centres unmarked) [Beispiel 37, 5-(N-Methyl-N-2,3,4,5,6-pentahydroxyhexyl)aminocarbonylmethoxy-2,4,6-trijodisophthalsäure-bis(2,3-dihydroxypropylamid)] | > 1000

The remaining lines, values ahead:

Row | solubility [mg/mL] | SMILES
13 | 60 (≈ 73 mM) | CCOCCOCCOc1c(I)c(C(=O)NC(CO)CO)c(I)c(C(=O)NC(CO)CO)c1I [Beispiel 1, 5-(3,6-Dioxaoctyl)oxy-2,4,6-trijodisophthalsäure-bis(1,3-dihydroxyiso-propylamid)]
14 | > 1000 | O=C(NC(CO)CO)c1c(I)c(OCCCOCCOCCOCCOCCCO)c(I)c(C(=O)NC(CO)CO)c1I [Beispiel 6, 5-(16-Hydroxy-4,7,10,13-tetraoxahexadecyl)oxy-2,4,6-trijod-isophthalsäure-bis(1,3-dihydroxyisopropylamid)]
15 | 16 (≈ 18.8 mM) | CC(CO)(CO)NC(=O)COc1c(I)c(C(=O)NC(CO)CO)c(I)c(C(=O)NC(CO)CO)c1I [Beispiel 15, 5-(1,3-Dihydroxy-2-methylisopropylaminocarbonyl)methoxy-2,4,6-trijodiso-phthalsäure-bis(1,3-dihydroxyisopropylamid)]
16 | > 1000 | CN(CC(O)CO)C(=O)COc1c(I)c(C(=O)NC(CO)CO)c(I)c(C(=O)NC(CO)CO)c1I (centres unmarked) [Beispiel 19, 5-(N-Methyl-N-2,3-dihydroxypropyl)aminocarbonylmethoxy-2,4,6-trijodiso-phthalsäure-bis-(1,3-dihydroxyisopropylamid)]
17 | > 1000 | CN(C[C@H](O)[C@H](O)CO)C(=O)COc1c(I)c(C(=O)NC(CO)CO)c(I)c(C(=O)NC(CO)CO)c1I [Beispiel 21, 5-(N-Methyl-N-2,3,4-trihydroxybutyl)aminocarbonylmethoxy-2,4,6-trijod-isophthalsäure-bis(1,3-dihydroxyisopropylamid)]

Same assay, conditions: water, bei 25 °C; read-out: Wasserlöslichkeit

Row | SMILES | solubility [mg/mL]
18 | C[C@@H](Oc1c(I)c(C(=O)NC(CO)CO)c(I)c(C(=O)NC(CO)CO)c1I)C(=O)NC(CO)(CO)CO [Beispiel 16, R(-)-5(1(1,3-Dihydroxy-2-hydroxymethyl-isopropylaminocarbonyl)ethoxy)-2,4,6-trijodisophthalsäure-bis(1,3-dihydroxyisopropylamid)] | 25 (≈ 28.4 mM)
19 | C[C@@H](Oc1c(I)c(C(=O)NC(CO)CO)c(I)c(C(=O)NC(CO)CO)c1I)C(=O)N(C)C[C@H](O)[C@@H](O)[C@@H](O)CO [Beispiel 26, R-5(1((N-Methyl-N-2,3,4,5-tetrahydroxypentyl)aminocarbonyl)ethoxy)-2,4,6-trijodisophthalsäure-bis(1,3-dihydroxyisopropylamid)] | > 1000
20 | CC(Oc1c(I)c(C(=O)NC(CO)CO)c(I)c(C(=O)NC(CO)CO)c1I)C(=O)N(C)C[C@H](O)[C@@H](O)[C@H](O)[C@H](O)CO (some centres unmarked) [Beispiel 28 R,S] | > 1000
21 | C[C@@H](Oc1c(I)c(C(=O)NC(CO)CO)c(I)c(C(=O)NC(CO)CO)c1I)C(=O)N(C)C[C@H](O)[C@@H](O)[C@H](O)[C@H](O)CO [Beispiel 28 R] | > 1000
22 | O=C(COc1c(I)c(C(=O)NCC(O)CO)c(I)c(C(=O)NCC(O)CO)c1I)NCCO (centres unmarked) [Beispiel 31, 5-(2-Hydroxyethylaminocarbonylmethoxy)-2,4,6-trijodisophthalsäure-bis(2,3-dihydroxypropylamid)] | 12 (≈ 14.9 mM)
23 | CC(CO)(CO)NC(=O)COc1c(I)c(C(=O)NCC(O)CO)c(I)c(C(=O)NCC(O)CO)c1I (centres unmarked) [Beispiel 33, 5-(1,3-Dihydroxy-2-methylisopropylaminocarbonylmethoxy)-2,4,6-trijod-isophthalsäure-bis(2,3-dihydroxypropylamid)] | > 1000
24 | CN(CC(O)CO)C(=O)COc1c(I)c(C(=O)NCC(O)CO)c(I)c(C(=O)NCC(O)CO)c1I (centres unmarked) [Beispiel 34, 5-(N-Methyl-N-2,3-dihydroxypropyl)aminocarbonylmethoxy-2,4,6-trijod-isophthalsäure-bis(2,3-dihydroxypropylamid)] | > 1000
25 | CN(C[C@H](O)[C@H](O)CO)C(=O)COc1c(I)c(C(=O)NCC(O)CO)c(I)c(C(=O)NCC(O)CO)c1I (some centres unmarked) [Beispiel 35, 5-(N-Methyl-N-2,3,4-trihydroxybutyl)aminocarbonylmethoxy-2,4,6-trijod-isophthalsäure-bis(2,3-dihydroxypropylamid)] | > 1000
26 | CN(C[C@H](O)[C@@H](O)[C@@H](O)CO)C(=O)COc1c(I)c(C(=O)NCC(O)CO)c(I)c(C(=O)NCC(O)CO)c1I (some centres unmarked) [Beispiel 36, 5-(N-Methyl-N-2,3,4,5-tetrahydroxypentyl)aminocarbonylmethoxy-2,4,6-trijodisophthalsäure-bis(2,3-dihydroxypropylamid)] | > 1000

Next, values leading:

Row | solubility [mg/mL] | SMILES
27 | > 1000 | CC(Oc1c(I)c(C(=O)NC(CO)CO)c(I)c(C(=O)NC(CO)CO)c1I)C(=O)N(CCO)CCO (racemic) [Beispiel 18]
28 | > 1000 | O=C(NC(CO)CO)c1c(I)c(OCC(=O)N(CCO)CCO)c(I)c(C(=O)NC(CO)CO)c1I [Beispiel 17]

Same assay, conditions: water, bei 100 °C; read-out: Wasserlöslichkeit

Row | solubility [mg/mL] | SMILES
29 | 1000 (≈ 1130 mM) | C[C@@H](Oc1c(I)c(C(=O)NC(CO)CO)c(I)c(C(=O)NC(CO)CO)c1I)C(=O)NC(CO)(CO)CO [Beispiel 16, R(-)-5(1(1,3-Dihydroxy-2-hydroxymethyl-isopropylaminocarbonyl)ethoxy)-2,4,6-trijodisophthalsäure-bis(1,3-dihydroxyisopropylamid)]

Same assay, conditions: water, bei Siedetemperatur; read-out: Wasserlöslichkeit

Row | SMILES | solubility [mg/mL]
30 | CNC(=O)COc1c(I)c(C(=O)NCC(O)CO)c(I)c(C(=O)NCC(O)CO)c1I (centres unmarked) [Beispiel 30, 5-Methylaminocarbonylmethoxy-2,4,6-trijodisophthalsäure-bis(2,3-di-hydroxypropylamid)] | 20 (≈ 25.7 mM)
31 | O=C(COc1c(I)c(C(=O)NCC(O)CO)c(I)c(C(=O)NCC(O)CO)c1I)NCCO (centres unmarked) [Beispiel 31, 5-(2-Hydroxyethylaminocarbonylmethoxy)-2,4,6-trijodisophthalsäure-bis(2,3-dihydroxypropylamid)] | 130 (≈ 161 mM)
32 | O=C(COc1c(I)c(C(=O)NCC(O)CO)c(I)c(C(=O)NCC(O)CO)c1I)NCC(O)CO (centres unmarked) [Beispiel 32, 5-(2,3-Dihydroxypropylaminocarbonylmethoxy)-2,4,6-trijodisophthalsäure-bis(2,3-dihydroxypropylamid)] | 100 (≈ 119 mM)

Next, values leading:

Row | solubility [mg/mL] | SMILES
33 | 1000 (≈ 1220 mM) | CCOCCOCCOc1c(I)c(C(=O)NC(CO)CO)c(I)c(C(=O)NC(CO)CO)c1I [Beispiel 1, 5-(3,6-Dioxaoctyl)oxy-2,4,6-trijodisophthalsäure-bis(1,3-dihydroxyiso-propylamid)]
34 | 100 (≈ 129 mM) | CNC(=O)COc1c(I)c(C(=O)NC(CO)CO)c(I)c(C(=O)NC(CO)CO)c1I [Beispiel 11, 5-Methylaminocarbonylmethoxy-2,4,6-trijod-isophthalsäure-bis(1,3-di-hydroxyisopropylamid)]
35 | 1000 (≈ 1170 mM) | CC(CO)(CO)NC(=O)COc1c(I)c(C(=O)NC(CO)CO)c(I)c(C(=O)NC(CO)CO)c1I [Beispiel 15, 5-(1,3-Dihydroxy-2-methylisopropylaminocarbonyl)methoxy-2,4,6-trijodiso-phthalsäure-bis(1,3-dihydroxyisopropylamid)]

Same assay, conditions: water, no temperature stated; read-out: Wasserlöslichkeit

Row | solubility [mg/mL] | SMILES
36 | > 1000 | O=C(NC(CO)CO)c1c(I)c(OCC(=O)N(CCO)CC(O)CO)c(I)c(C(=O)NC(CO)CO)c1I (centres unmarked) [Beispiel 23, 5-(N-2-Hydroxyethyl-N-2,3-dihydroxypropyl)aminocarbonylmethoxy-2,4,6-trijodisophthalsäure-bis(1,3-dihydroxyisopropylamid)]
37 | > 1000 | C[C@@H](Oc1c(I)c(C(=O)NC(CO)CO)c(I)c(C(=O)NC(CO)CO)c1I)C(=O)N(CCO)CC(O)CO (some centres unmarked) [Beispiel 24, R-5(1((N-2-Hydroxyethyl-N-2,3-dihydroxypropyl)aminocarbonyl)ethoxy)-2,4,6-trijodisophthalsäure-bis(1,3-dihydroxyisopropylamid)]
38 | > 1000 | CN(C[C@@H](O)[C@H](O)[C@H](O)CO)C(=O)COc1c(I)c(C(=O)NC(CO)CO)c(I)c(C(=O)NC(CO)CO)c1I [Beispiel 25, 5-(N-Methyl-N-2,3,4,5-tetrahydroxypentyl)aminocarbonylmethoxy-2,4,6-trijodisophthalsäure-bis(1,3-dihydroxyisopropylamid)]
